In patent US20220356232A1, “A COMBINATION OF PLASMA IMMUNOGLOBULIN AND ANTIGEN-SPECIFIC IMMUNOGLOBULIN FOR THE MODIFICATION OF THE IMMUNE SYSTEM AND THE TREATMENT OR PREVENTION OF AUTOIMMUNE DISEASES” (Network Immunology Inc., priority 2019, published 2022):

What was measured:
Format in all cases: in vivo, C57BL/6 mice
[1] = system: DSS-induced acute colitis; assay: DSS-induced acute colitis (Example 6); conditions: 3% DSS 7 days; treatment from time of DSS exposure; FIGS. 12A-12C
Text: Wild-type (WT) C57BL/6 female mice, with high susceptibility to DSS-induced colitis, were used throughout and purchased from the Jackson laboratories (Bar Harbor, Me.). All mice were housed five per cage under specific pathogen-free conditions, allowed standard diet and water ad libitum, and used at 6-8 wk of age. Acute DSS colitis was induced by giving mice distilled drinking water containing 3% (wt./vol) DSS (Mol.Wt.=40 kDa; ICN Biochemicals, Aurora, Ohio) for 7 days. For induction of chronic colitis, mice were treated with 5 days of 2.5% DSS followed by 7 days of normal drinking water for a total of 3 cycles. Body weight was measured three times/week throughout the experiment. The maximum mortality observed following induction of acute colitis was 15% averaged over all studies, while no significant mortality was seen any groups in the chronic colitis model. Maximum weight loss in either model was ˜25%. […] In FIG. 12A, changes in body weight are expressed as a percent weight loss from baseline and plotted versus time post initiation of DSS treatment (x-axis). […] In FIGS. 12B and 12C, changes in colon length and 24 hr cytokine production from colon explant cultures respectively were assessed on day 9 following initiation of DSS treatment for mice shown in FIG. 12A and are expressed as mean±SD.

[2] = system: DSS-induced chronic colitis; assay: DSS-induced chronic colitis: body weight and colon length (Example 6)
[3] = system: colonic explants from mice with chronic colitis; assay: Cytokine release from 24 hr colonic explant cultures, chronic colitis (Example 6); conditions: 24 hr colonic explant cultures harvested at 38 d; FIG. 8
[4] = system: PP cells isolated from colonic tissue; assay: FACS staining of CD3+ and Foxp3+ cells in PP cells isolated from colonic tissue, chronic colitis; conditions: DSS chronic colitis, treatment as per FIG. 7A
[5] = system: DSS-induced chronic colitis; assay: Effect of T depletion (anti-CD4 mAb) on protection from DSS-induced chronic colitis; conditions: no anti-CD4 mAb

C[C@]12CCC(=O)C=C1CC[C@@H]1[C@@H]2[C@@H](O)C[C@@]2(C)[C@H]1CC[C@]2(O)C(=O)COC(=O)CCC(=O)O [Solu-Cortef]
protection from pathology of acute colitis (weight loss, colon length, production of inflammatory cytokines) [1]: protected | weight loss in second and third cycle of DSS treatment ([2]; Ig weekly ×5 im from start of first DSS cycle, Solu-Cortef 6 μg/mouse alternate days, FIG. 7A): attenuation of weight loss | suppression of disease in chronic colitis ([2]; all DSS cycles, 6 μg/mouse on alternate days): active in suppressing disease at all times | release of inflammatory cytokines IFNγ, TNFα, IL-1β, IL-17 and IL-6 [3]: No such increased inflammatory cytokine release | % Ant-CD3 ([4]; PP cells from 2-3 mice/group): 4.4 ± 2.2% | % Anti-Foxp3 ([4]; PP cells from 2-3 mice/group): 0.2 ± 0.2% | Foxp3:CD3 ([4]; ratio, PP cells): 0.04 | weight loss after induction of chronic colitis ([5]; 5 mice/group, FIG. 9A): protected | release of inflammatory cytokines from colon explant cultures ([5]; FIG. 10): attenuation of release
